Data published in publication PMC10338470, “Phase 1 study of GSK3368715, a type I PRMT inhibitor, in patients with advanced solid tumors” (British Journal of Cancer, 2023).

How the values were obtained:
[1] = in vivo; cited from earlier work
[2] = Safety margins of starting dose from toxicity studies in dogs; format: in vivo; details: 50 mg starting dose
[3] = test system: acute myeloid leukemia (AML) cell lines; design: method as in PMID 31257072; details: acute myeloid leukemia (AML) cell lines ref [6]; cited from earlier work
[4] = test system: ADMA-R225-hnRNP-A1 in tumor biopsies; assay: Tumor biopsy ADMA-R225-hnRNP-A1 by IHC (formalin-fixed); format: in vivo, human; details: 100-mg dose level, day 15; in 4/8 patients
Method: (§1) Tumor cell and plasma target engagement PD biomarkers were assessed in the dose-escalation cohort on days 1, 8, 15, and 22. In the PK/PD cohort, urine for PK and metabolite profiling was collected postdose on day 1 and through 48 h postdose on day 2, and for 24 h postdose on day 15. Participants underwent an on-treatment tumor biopsy on day 15. Asymmetric arginine 225 (R225) methylation of heterogeneous nuclear ribonucleoprotein A1 (hnRNP-A1) was identified as a target engagement PD of type I PRMT inhibition; treatment with GSK3368715 results in the reduction of asymmetric dimethylarginine 225 (ADMA-R225) on hnRNP-A1 protein in cancer cell lines and peripheral blood mononuclear cells (PBMCs). Noto et al. describe in detail the identification of hnRNP-A1 as a pharmacodynamic biomarker of type I PRMT inhibition, and the development of novel methodologies to accurately and precisely quantitate changes in the levels of ADMA on hnRNP-A1 in both blood and tumor compartments. Levels of ADMA-R225-hnRNP-A1 were measured in fresh frozen and formalin-fixed paired biopsies by liquid chromatography-mass spectrometry (LC-MS) and immunohistochemistry (IHC).

[5] = test system: protein SDMA; assay: Protein SDMA in formalin-fixed paired tumor biopsies; format: in vivo, human
[6] = test system: advanced-stage solid tumors; assay: Best overall response per RECIST 1.1; format: in vivo, human
Method: Adverse events were coded using the standard MedDRA groupings and graded according to NCI-CTCAE version 5.0. Clinical chemistry, urinalysis, and coagulation tests were performed predose on days 1, 8, 15, 22, and weekly thereafter. Tumor imaging occurred every 8 weeks until week 33, and then every 16 weeks thereafter. Adverse events and DLTs were summarized descriptively by dose cohort. Pharmacokinetic parameters of GSK3368715 and its metabolites (GSK3963583 and GSK3983164) were estimated in the PK/PD population (all participants for whom a PK sample was obtained) using a noncompartmental analysis model (WinNonlin version 8.1) and summarized descriptively. Best overall response as per RECIST 1.1 was summarized descriptively by dose cohort. Levels of tumor cell and plasma pharmacodynamic biomarkers were also summarized descriptively.

[7] = Plasma pharmacokinetics (LC-MS-MS, noncompartmental analysis); format: in vivo, human; details: for AUC0-24, geometric mean (%CVb) / Cmax, geometric mean (%CVb) / t1/2, geometric mean (%CVb) / tmax, median (range): plasma
Method: In both the dose-escalation and PK/PD cohorts, plasma samples for PK analysis were obtained following dosing on day 1 and pre- and postdose on days 2, 3, 4, 8, 15, 16, 22, and predose every 4 weeks thereafter. Plasma concentrations for GSK3368715 and its metabolites (GSK3963583, GSK3983164, and GSK3510519) were quantified using a validated ultra high-performance liquid chromatography-mass spectrometry-mass spectrometry (LC-MS-MS) method. PK parameters were analyzed using noncompartmental methods.
Adverse events and DLTs were summarized descriptively by dose cohort. Pharmacokinetic parameters of GSK3368715 and its metabolites (GSK3963583 and GSK3983164) were estimated in the PK/PD population (all participants for whom a PK sample was obtained) using a noncompartmental analysis model (WinNonlin version 8.1) and summarized descriptively. Best overall response as per RECIST 1.1 was summarized descriptively by dose cohort. Levels of tumor cell and plasma pharmacodynamic biomarkers were also summarized descriptively.

[8] = test system: global ADMA levels; design: method as in PMID 31257072; details: preclinical cancer models ref [6]; cited from earlier work
[9] = test system: ADMA-R225-hnRNP-A1 in PBMCs; assay: ADMA-R225-hnRNP-A1 in PBMCs (LC-MS), target engagement; format: in vivo, human
Method: as §1
To measure the ADMA-R225-hnRNP-A1 in the PBMCs, blood was collected using the standard technique for BD Vacutainer® Evacuated Blood Collection Tubes. The PBMC aspirate prepared was used for the ADMA analyses as previously described by the LC-MS method.

[10] = GSK3368715 50-mg dose escalation cohort, Day 1
[11] = GSK3368715 50-mg dose escalation cohort, Day 15
[12] = GSK3368715 100-mg PK/PD cohort, Day 1
[13] = GSK3368715 100-mg PK/PD cohort, Day 15
[14] = GSK3368715 100-mg dose escalation cohort, Day 1
[15] = GSK3368715 100-mg dose escalation cohort, Day 15
[16] = GSK3368715 100-mg total, Day 15

## CCOCC1(COCC)CCC(c2[nH]ncc2CN(C)CCNC)CC1 [GSK3368715]
[1]
  TEEs reported in preclinical models: no TEEs
[2]
  Safety margin for the steady state AUC: 16 fold
  Safety margin for the steady state Cmax: 33 fold
[3]
  Cell lines with cytotoxic responses: 50%
[4]
  Mean reduction of ADMA-hnRNP-A1 in tumor biopsies by IHC (SE 9.36): 2.08%
[5]; 7/8 patients
  Patients with increased protein SDMA in formalin-fixed paired biopsies: 88%
[5]; range −28 to 155%
  Median increase of protein SDMA in formalin-fixed paired biopsies: 48.9%
[6]; 50 mg (n = 3)
  Best response: Complete response: 0 n (%)
  Best response: Missing: 0 n (%)
  Best response: Not evaluable: 1 (33) n (%)
  Best response: Partial response: 0 n (%)
  Best response: Progressive disease: 2 (67) n (%)
  Best response: Stable disease: 0 n (%)
  Overall response rate: Complete response + partial response: 0 n (%)
[6]; 100 mg (n = 16)
  Best response: Complete response: 0 n (%)
  Best response: Missing: 0 n (%)
  Best response: Not evaluable: 0 n (%)
  Best response: Partial response: 0 n (%)
  Best response: Progressive disease: 10 (63) n (%)
  Best response: Stable disease: 6 (38) n (%)
  Overall response rate: Complete response + partial response: 0 n (%)
[6]; 200 mg (n = 12)
  Best response: Complete response: 0 n (%)
  Best response: Missing: 3 (25) n (%)
  Best response: Not evaluable: 0 n (%)
  Best response: Partial response: 0 n (%)
  Best response: Progressive disease: 6 (50) n (%)
  Best response: Stable disease: 3 (25) n (%)
  Overall response rate: Complete response + partial response: 0 n (%)
[6]; 6 patients with MTAP gene deletion
  Patients with stable disease among patients with MTAP gene deletion: 2
[6]; 6 patients with MTAP gene deletion, treatment exposure 15 days to 37 days
  Patients with progressive disease among patients with MTAP gene deletion: 4
[6]; Total (N = 31)
  Best response: Complete response: 0 n (%)
  Best response: Missing: 3 (10) n (%)
  Best response: Not evaluable: 1 (3) n (%)
  Best response: Partial response: 0 n (%)
  Best response: Progressive disease: 18 (58) n (%)
  Best response: Stable disease: 9 (29) n (%)
[6]; all dose groups
  Disease stability, patients: 29%
[7]; dose range studied (50-200 mg)
  Increase of Cmax and AUC0−24 with dose: dose proportional
[7]; in vivo
  PK variability (%CVb): high PK variability
[7]; GSK3368715 200 mg, Day 1
  AUC0-24, geometric mean (%CVb): 1274.7 (43.8) h•ng/mL
  Cmax, geometric mean (%CVb): 336.8 (72.6) ng/mL
  t1/2, geometric mean (%CVb): 15.9 h
  tmax, median (range): 1.1 (0.4, 3.1) h
[7]; GSK3368715 200 mg, Day 15
  AUC0-24, geometric mean (%CVb): 4861.4 (45.3) h•ng/mL
  Cmax, geometric mean (%CVb): 729.2 (42.8) ng/mL
  t1/2, geometric mean (%CVb): 2.9 (43.5) h
  tmax, median (range): 1.0 (0.5, 3.1) h
[7]; [10]
  AUC0-24, geometric mean (%CVb): 259.5 (--) h•ng/mL
  Cmax, geometric mean (%CVb): 107.2 (48.8) ng/mL
  tmax, median (range): 0.28 (0.25, 1.1) h
[7]; [11]
  AUC0-24, geometric mean (%CVb): 581.9 (101.4) h•ng/mL
  Cmax, geometric mean (%CVb): 111.9 (48.5) ng/mL
  tmax, median (range): 3.0 (0.5, 3.1) h
[7]; [12]
  AUC0-24, geometric mean (%CVb): 937.6 (30.9) h•ng/mL
  Cmax, geometric mean (%CVb): 237.6 (62.3) ng/mL
  t1/2, geometric mean (%CVb): 8.8 (--) h
  tmax, median (range): 0.5 (0.3, 3.1) h
[7]; [13]
  AUC0-24, geometric mean (%CVb): 1628.8 (60.4) h•ng/mL
  Cmax, geometric mean (%CVb): 382.7 (67.4) ng/mL
  t1/2, geometric mean (%CVb): 1.4 (--) h
  tmax, median (range): 1.0 (0.5, 2.1) h
[7]; [14]
  AUC0-24, geometric mean (%CVb): 1020.7 (26.7) h•ng/mL
  Cmax, geometric mean (%CVb): 145.0 (207.3) ng/mL
  t1/2, geometric mean (%CVb): 7.2 (--) h
  tmax, median (range): 0.5 (0.3, 3.1) h
[7]; [15]
  AUC0-24, geometric mean (%CVb): 1479.6 (79.7) h•ng/mL
  Cmax, geometric mean (%CVb): 362.9 (115.9) ng/mL
  t1/2, geometric mean (%CVb): 1.8 (--) h
  tmax, median (range): 0.9 (0.5, 1.1) h
[7]; GSK3368715 100-mg total, Day 1
  AUC0-24, geometric mean (%CVb): 972.3 (27.1) h•ng/mL
  Cmax, geometric mean (%CVb): 197.4 (112.1) ng/mL
  t1/2, geometric mean (%CVb): 7.9 h
  tmax, median (range): 0.5 (0.3, 3.1) h
[7]; [16]
  AUC0-24, geometric mean (%CVb): 1573.8 (64.2) h•ng/mL
  Cmax, geometric mean (%CVb): 375.5 (79.9) ng/mL
  t1/2, geometric mean (%CVb): 1.6 (15.6) h
  tmax, median (range): 0.9 (0.5, 2.1) h
[8]
  Time of maximal decreases in global ADMA levels: 72 h
[9]; 100 mg, day 15
  Reduction of ADMA-R225-hnRNP-A1 in PBMCs, mean (SE 5.81%): 43.1%
[9]; 200-mg dose group, day 15
  Reduction of ADMA-R225-hnRNP-A1 in PBMCs, mean (SE 6.92%): 54.7%
[9]; in vivo
  Target engagement in the blood: observed
